Measured values from article PMC9077138, “An investigation on 3-acetyl-7-methoxy-coumarin Schiff bases and their Ru(II) metallates with potent antiproliferative activity and enhanced LDH and NO release” (RSC Advances, 2018).
Where two headings read alike, the source gives them in different places.

How the values were obtained:
S. aureus = assay: In vitro antibacterial assay (zone of inhibition, MIC); format: cell-based, Staphylococcus aureus; settings: for zone of inhibition at 50 µg/mL / zone of inhibition at 100 µg/mL: Staphylococcus aureus; for Minimum inhibitory concentration (MIC); head: IC50 VALUES / Zone of inhibition: S. aureus
Protocol: (§1) The free ligands and their cyclometallated ruthenium(II) carbonyl complexes were screened for their in vitro antimicrobial activity against certain pathogenic bacterial and fungal species at three different concentrations using disc diffusion method.
(§2) Antimicrobial activities of [RuHClCO(PPh3)3], ligands H2L^1–4 and new organometallic Ru(II) complexes (1–4) were evaluated by agar well diffusion method[76] as reported, by taking Staphylococcus aureus, Streptococcus pneumonie, Pseudomonas aeruginosa, Salmonella paratyphi and fungus such as Candida albicans, Trichophyton rubrum, Aspergillus niger, Aspergillus fumigatus and Candida tropicalis. The above said all test organisms were obtained from the MTCC, Chandigarh, India and Microbiological laboratory, Coimbatore, Tamil Nadu, India. The antimicrobial activity of the test compounds was checked with various concentrations (25 μg ml^−1, 50 μg ml^−1 and 100 μg ml^−1) against all the test pathogens. Gentamicin and ketoconazole were used as positive controls to study the antibacterial and antifungal activities respectively. Each experiment was performed in triplicate and the results are represented as average zone of inhibition and minimum inhibitory concentration of all the test pathogens.

[1] = test system: human lung carcinoma cancer cell line A549; assay: MTT cytotoxicity assay; format: cell-based; settings: read-out: IC50 values A549
From the text: (§3) The DNA/protein binding studies, antioxidant and antimicrobial studies had shown that the ligands and ruthenium(II) complexes studied here have therapeutic potentials and were subjected to study their anticancer activity. A number of coumarin derivatives have shown considerable anticancer activity against a number of cell lines. All the 3-acetyl-7-methoxy-coumarin-4(N)-substituted thiosemicarbazone ligands, metal precursor [RuHClCO(PPh3)3] and their new cyclometallated Ru(II) complexes were assessed for their cytotoxicity with two human derived cell lines namely human lung carcinoma (A549) and human breast cancer cells (MCF-7) by using MTT assay. For comparison purpose, cisplatin was used as a positive control under identical conditions.
(§4) Cytotoxic activity of the compounds was tested with human lung cancer cell lines A549, human breast cancer cell lines MCF-7 and human normal keratinocyte cells (HaCaT) by using MTT assay, which was done according to the earlier literature methods[77] and IC50 values obtained from nonlinear regression using GraphPad Prism 5.[78] The LDH release[79] and NO release[80] assays of the compounds was evaluated by the earlier reported methods.

[2] = test system: human breast cancer cell line MCF-7; assay: MTT cytotoxicity assay; format: cell-based; settings: read-out: IC50 values MCF-7
From the text: as §3, §4

S. pneumonie = assay: In vitro antibacterial assay (zone of inhibition, MIC); format: cell-based, Streptococcus pneumonie; settings: for zone of inhibition at 50 µg/mL / zone of inhibition at 100 µg/mL: Streptococcus; for Minimum inhibitory concentration (MIC); head: IC50 VALUES / Zone of inhibition: S. pneumonie
Protocol: as §1, §2

[3] = test system: human normal keratinocyte cells (HaCaT); assay: MTT cytotoxicity assay; format: cell-based; settings: 48 h, read-out: IC50 values HaCaT
Protocol: In order to investigate the selectivity of the compounds for cancer cells rather than normal cell lines, the compounds were also screened for their anticancer activity on the human normal keratinocyte cells (HaCaT).
as §4

CT-DNA = assay: UV-Vis absorption titration with CT-DNA; parameters: species or system calf; settings: intrinsic binding constant, Tris–HCl buffer pH 7.2
From the text: DNA-binding studies are important for the rational design and construction of new and more efficient drugs targeted to DNA.[42] The binding affinity of the ligands and their organoruthenium(II) complexes with CT-DNA can be measured by using UV-Vis spectroscopy. The UV-Vis absorption spectra of the free ligands and their complexes in the absence and presence of CT DNA are given in Fig. S25 ^† and 7. […] The decrease in absorbance with increase in concentration of CT-DNA may be due to the decrease in transition probabilities as a result of partial transfer of electrons from the π orbital of the DNA base pairs to the coupled π* orbital of the coordinated Schiff base to metal due to overlapping.[43] The extent of hypochromism in the charge transfer band is an indication of the strength of intercalative interaction.[43]
In order to compare the DNA-binding affinities of the ligands and their metal complexes quantitatively, their intrinsic binding constants Kbin were obtained according to eqn (S1). ^† The binding constant value was calculated from the plot of [DNA]/(εa − εf) versus [DNA] and the data were given in Table 3 (Fig. 8). […] This may be due to the presence of different substituents in the terminal nitrogen atom of the ligands.
Supplementary Information
All the experiments involving CT-DNA binding were carried out in deionised water with tris(hydroxymethyl)-aminomethane (Tris, 5 mM) and sodium chloride (50 mM) and adjusted to pH 7.2 with hydrochloric acid at room temperature. The concentration of CT-DNA was determined by UV absorbance at 260 nm. Solutions of CT-DNA in Tris-HCl buffer gave a ratio of UV absorbance at 260 and 280 nm, A260/A280, of approximately 1.9, […]
The molar absorption coefficient, ε260, was taken as 6600 M−1 cm−1.Various concentrations of CT-DNA (2-2.5 µM) was added to the complexes (25 µM dissolved in DMSO/Tris-HCl buffer, 1 % DMSO in the final solution). While measuring the absorption spectra, an equal amount of DNA was added to both the test and reference solutions to eliminate the absorbance of DNA itself. Control experiments with DMSO were performed and no change in the spectra of CT-DNA was observed. Absorption spectra were recorded after equilibrium at 20 °C for 10 min. The intrinsic binding constant K b was determined by using following equation(1) [DNA]/[εa-εf]) = [DNA]/[ε b-εf]+1/Kb[εb-εf] (S1)
The absorption coefficients εa, εf and εb correspond to Aobsd/[DNA], the extinction coefficient for the free compound and for the compound in the fully bound form respectively. The slope and the intercept of the linear fit of the plot of [DNA]/[εa −εf] versus [DNA] give […] and 1/Kb[εb−εf] respectively. The intrinsic binding constant Kb can be obtained from the ratio of the slope to the intercept. […]

Row | Structure (SMILES) | zone of inhibition at 50 µg/mL (S. aureus) | zone of inhibition at 100 µg/mL (S. aureus) | IC50 ([1]; Homo sapiens, A549, 48 h) | IC50 ([2]; Homo sapiens, MCF7, 48 h) | melting point | zone of inhibition at 50 µg/mL (S. pneumonie) | zone of inhibition at 100 µg/mL (S. pneumonie) | IC50 ([3]; Homo sapiens, HaCaT) | Minimum inhibitory concentration (MIC); head: IC50 VALUES (S. aureus) | Zone of inhibition (S. aureus; 50 µg/ml) | Zone of inhibition (S. aureus; 100 µg/ml) | IC50 ([1]; MTT, 48 h) | IC50 ([2]; MTT, 48 h) | Binding constant Kbin (CT-DNA) | Minimum inhibitory concentration (MIC); head: IC50 VALUES (S. pneumonie) | Zone of inhibition (S. pneumonie; 50 µg/ml) | Zone of inhibition (S. pneumonie; 100 µg/ml) | IC50 ([3]; MTT, normal cells)
1 | COc1ccc2cc(/C(C)=N\NC(=S)Nc3ccccc3)c(=O)oc2c1 [H2L^4, ((1E)-1-(1-(7-methoxy-2-oxo-2H-chromen-3-yl)ethylidene) 4(N)-phenylthiosemicarbazone)] | 15.4 ± 0.52 mm | 18.5 ± 0.73 mm | 13.8 ± 0.18 µM | 13.1 ± 0.25 µM | 186 °C | 12.2 ± 0.43 mm | 18.1 ± 0.22 mm | > 40 µM | – | – | – | – | – | – | – | – | – | –
2 | COc1ccc2cc(C(C)=NNC(N)=S)c(=O)oc2c1 [H2L^1, ((1E)-1-(1-(7-methoxy-2-oxo-2H-chromen-3-yl)ethylidene)thiosemicarbazone)] | 13 ± 0.23 mm | 17.19 ± 0.16 mm | 12.6 ± 0.17 µM | 13.1 ± 0.29 µM | 213 °C | 12.38 ± 0.12 mm | 16.4 ± 0.31 mm | > 40 µM | – | – | – | – | – | – | – | – | – | –
3 | COc1ccc2[c]3c(c(=O)oc2c1)C(C)=[N+]1N=C(Nc2ccccc2)[S][Ru-4]31([C]#[O+])([P+](c1ccccc1)(c1ccccc1)c1ccccc1)[P+](c1ccccc1)(c1ccccc1)c1ccccc1 [Complex 4, [Ru(7MAC-ptsc)(CO)(PPh3)2]] | – | – | – | – | – | – | – | – | 18.25 ± 0.11 µM | 12.21±0.42 mm | 18.11±0.11 mm | 3.05 ± 0.12 µM | 3.02 ± 0.05 µM | 1.0636 ± 0.334 × 10^6 M^−1 | 15.89 ± 0.12 µM | 12.31±0.48 mm | 16.54±0.12 mm | > 40 µM
4 | CNC(=S)NN=C(C)c1cc2ccc(OC)cc2oc1=O [H2L^2, ((1E)-1-(1-(7-methoxy-2-oxo-2H-chromen-3-yl)ethylidene) 4(N)-methylthiosemicarbazone)] | 12.1 ± 0.25 mm | 17.5 ± 0.28 mm | 12.1 ± 0.16 µM | 12.1 ± 0.32 µM | 117 °C | 12.1 ± 0.33 mm | 17.3 ± 0.41 mm | > 40 µM | – | – | – | – | – | – | – | – | – | –
5 | CNC1=N[N+]2=C(C)c3[c](c4ccc(OC)cc4oc3=O)[Ru-4]2([C]#[O+])([P+](c2ccccc2)(c2ccccc2)c2ccccc2)([P+](c2ccccc2)(c2ccccc2)c2ccccc2)[S]1 [Complex 2, [Ru(7MAC-mtsc)(CO)(PPh3)2]] | – | – | – | – | – | – | – | – | 15.90 ± 0.16 µM | 13.12±0.41 mm | 18.65±0.13 mm | 2.93 ± 0.07 µM | 2.62 ± 0.07 µM | 1.3958 ± 0.320 × 10^6 M^−1 | 16.43 ± 0.09 µM | 13.21±0.13 mm | 17.14±0.12 mm | > 40 µM
6 | CCNC(=S)NN=C(C)c1cc2ccc(OC)cc2oc1=O [H2L^3, ((1E)-1-(1-(7-methoxy-2-oxo-2H-chromen-3-yl)ethylidene) 4(N)-ethylthiosemicarbazone)] | 12.3 ± 0.41 mm | 15.6 ± 0.65 mm | 11.6 ± 0.15 µM | 11.3 ± 0.21 µM | 174 °C | 11.2 ± 0.15 mm | 17.2 ± 0.21 mm | > 40 µM | – | – | – | – | – | – | – | – | – | –
7 | COc1ccc2[c]3c(c(=O)oc2c1)C(C)=[N+]1N=C(N)[S][Ru-4]31([C]#[O+])([P+](c1ccccc1)(c1ccccc1)c1ccccc1)[P+](c1ccccc1)(c1ccccc1)c1ccccc1 [Complex 1, [Ru(7MAC-tsc)(CO)(PPh3)2]] | – | – | – | – | – | – | – | – | 16.35 ± 0.21 µM | 12.16±0.11 mm | 18.09±0.15 mm | 2.96 ± 0.07 µM | 2.86 ± 0.17 µM | 1.2544 ± 0.304 × 10^6 M^−1 | 15.86 ± 0.07 µM | 12.41±0.36 mm | 18.51±0.94 mm | > 40 µM
8 | CCNC1=N[N+]2=C(C)c3[c](c4ccc(OC)cc4oc3=O)[Ru-4]2([C]#[O+])([P+](c2ccccc2)(c2ccccc2)c2ccccc2)([P+](c2ccccc2)(c2ccccc2)c2ccccc2)[S]1 [Complex 3, [Ru(7MAC-etsc)(CO)(PPh3)2]] | – | – | – | – | – | – | – | – | 13.14 ± 0.12 µM | 12.04±0.60 mm | 17.14±0.12 mm | 2.37 ± 0.04 µM | 2.53 ± 0.1 µM | 1.4428 ± 0.279 × 10^6 M^−1 | 14.85 ± 0.09 µM | 11.11±0.22 mm | 17.46±0.41 mm | > 40 µM
